Measured values from patent US20220202770A1, “COMPOSITION FOR TREATING HEPATITIS B, AND METHOD FOR EVALUATING REPLICATION ACTIVITY OF HEPATITIS B VIRUS” (priority 2016, published 2022).

Tests used:
[1] = test system: Lamivudine-resistance mutant HBV-Pol (HBV-Pol-LAMr, M204I); assay: Evaluation method for HBV replication activity with Lamivudine-resistance mutant HBV-Pol; type: cell-based, hepatitis B virus; HeLa cells; settings: Example 9, FIG. 12B (c, d); HeLa cells, 0.020-5.000 μM, 24 hours
Text: (§1) As described in the section of “background art”, long-term administration of conventional anti-HBV drugs made of a nucleotide/nucleoside analog such as Entecavir and Lamivudine causes the emergence of drug-resistant HBV. As a cause of the emergence of such a drug-resistant HBV, a mutation within the region of reverse transcription enzyme (RT) of HBV-Pol has been reported.
(§2) Then, mutant HBV-Pol expression vectors having M204I mutation, and L180M/T184G/S202I/M204I mutations respectively introduced therein were prepared in accordance with a conventional method and designated as HBV-P-LAMr, and HBV-P-ETVr, respectively. As the MAPKK inhibitor, Hypothemycin was used. As a negative control against a drug-resistant HBV, an existing anti-HBV drug, Entecavir, was used.
(§3) HBV replication evaluation was carried out in the same manner as in the evaluation method for HBV replication activity described in Example 1. The evaluation vector for HBV replication activity, and expression vectors of a wild type HBV-P or mutant HBV-P (HBV-P-LAMr or HBV-P-ETVr), HBc and HBx were introduced in the same ratio as in Example 2; at the same time, Hypothemycin or Entecavir was introduced in amounts of 0.000 μM, 0.020 μM, 0.039 μM, 0.078 μM, 0.156 μM, 0.313 μM, 0.625 μM, 1.250 μM, 2.500 μM or 5.000 μM. Culture was carried out under a 5% CO2 atmosphere at 37° C. […]

[2] = test system: HBV DNA replication (reverse transcription of reporter pgRNA by wild type HBV-Pol); assay: Evaluation method for HBV replication activity: reporter-minus strand DNA quantified by real time PCR in transfected HeLa cells; type: cell-based, hepatitis B virus (genotype C); HeLa cells; settings: 24 hours; for suppression of reverse transcription by wild-type HBV-Pol: Example 9, FIG. 12B (a, b), 0.020-5.000 μM
Experimental: To HeLa cells, the evaluation vector for HBV replication activity, HBV-P expression vector, HBc expression vector and HBx expression vector were introduced in various combinations (Introduction step). Combination patterns are as described in FIG. 4A. Transfection of the HeLa cells was carried out by electroporation. DNA (10 μg) was introduced into about 1×10^6 HeLa cells in the conditions of 125 V/2.5 ms plus length by an electroporator, Nepa 21 (Nepa Gene Co., Ltd.). The ratio of HBc expression vector:HBV-P expression vector:HBx expression vector was set to be 9:3:1. If there was an expression vector not to be introduced depending on the combination, the same ratio of an empty vector (pCI) as that of the expression vector not to be introduced was introduced. The ratio of the evaluation vector for HBV replication activity and the total of other expression vectors was set to be 1: 1 (5 μg: 5 μg). If there was an expression vector not to be introduced, pCI was introduced at the ratio corresponding to that of the expression vector.
After transfection, the HeLa cells were cultured in DMEM supplemented with 2 mL of 10% FBS in the presence of 5% CO2 at 37° C. for 48 hours (Culturing step).
After culture, DNA was extracted from the HeLa cells by means of DNeasy Mini (Qiagen). As the primer, a primer pair of a forward primer consisting of the nucleotide sequence represented by SEQ ID NO: 38 and a reverse primer consisting of the nucleotide sequence represented by SEQ ID NO: 39, was used. The forward primer has the two nucleotides at the 3′ terminal, which match the two nucleotides at the 5′ terminal of the exon present on the downstream side; however, fail to match two nucleotides at the 5′ terminal of the intron. Accordingly, the forward primer functions as a primer only in the case where reporter-minus strand DNA having a reporter sequence from which the intron was removed is present, and amplification can be made by using the reporter-minus strand DNA as a template to provide a DNA fragment of 131 nucleotides.
In accordance with the evaluation method for HBV replication activity described in Example 1, an evaluation vector for HBV replication activity, HBV-P expression vector, HBc expression vector and HBx expression vector were introduced in HeLa cells. […]
To HeLa cells, an evaluation vector for HBV replication activity, and expression vectors of HBV-P, HVc and HBx were introduced in the ratio described in the evaluation method for HBV replication activity described in Example 2. […] The absorbance of the culture solution was measured at 450 nm/650 nm to evaluate the survival rates of the cells. […]

[3] = test system: Entecavir-resistance mutant HBV-Pol (HBV-Pol-ETVr, L180M/T184G/S202I/M204I); assay: Evaluation method for HBV replication activity with Entecavir-resistance mutant HBV-Pol; type: cell-based, hepatitis B virus; HeLa cells; settings: Example 9, FIG. 12B (e, f); HeLa cells, 0.020-5.000 μM, 24 hours
Text: as §1, §2, §3

[4] = test system: genomic DNA (G3PDH exon 8) of HeLa cells; assay: Amount of genomic DNA (G3PDH exon 8) in HeLa cells by real time PCR; type: cell-based, human (HeLa cells); settings: Example 3, FIG. 6B, serially diluted
Experimental: (§4) To HeLa cells, an evaluation vector for HBV replication activity, and expression vectors of HBV-P, HVc and HBx were introduced in the ratio described in the evaluation method for HBV replication activity described in Example 2. Thereafter, the HeLa cells were cultured in a 96-well plate containing a culture solution supplemented with a 0.25% n-butanol extract of a filamentous fungus culture, under 5% CO2 atmosphere at 37° C. Twenty-four hours later, WST-8 (Nacalai) was added to the culture solution, which was further subjected to culture for 2 hours. The absorbance of the culture solution was measured at 450 nm/650 nm to evaluate the survival rates of the cells.
(§5) After the culture solution was removed, DNA in the cell cytoplasm was recovered by a treatment with 50 μl of Buffer A (10 mM HEPES, 1.5 mM MgCl2, 10 mM KCl, 0.5 mM DTT, 0.05% NP40, pH7.9) and subjected to real time PCR performed in accordance with the method of Example 1. As the result of primary screening of 800 extracts (200 strains, 4 culture solutions), 162 extracts inhibiting 25% or more of HBV DNA replication (reverse transcription) and having a cytotoxic activity of 80% or less were selected as a primary hit.
(§6) Subsequently, 162 extracts primarily hit were serially diluted and added to an evaluation system. […]

[5] = test system: mitochondrial DNA (ND5) of HeLa cells; assay: Amount of mitochondrial DNA (ND5) in HeLa cells by real time PCR; type: cell-based, human (HeLa cells); settings: Example 3, FIG. 6C, serially diluted
Experimental: as §4, §5, §6

[6] = molecular target: HBV/C-Pol (hepatitis B virus polymerase, Genotype C), wild type (hepatitis B virus, Genotype C) (UniProt Q9YZR5); assay: cell-based or functional assay

| Compound | suppression of reverse transcription activity of Lamivudine-resistance mutant HBV-Pol [1] | amount of the reporter-minus strand DNA (replication of HBV DNA) ([2]; Example 2, FIG. 5, 0.04-5.00 μM/well) | suppression of reverse transcription by wild-type HBV-Pol [2] | suppression of reverse transcription activity of Entecavir-resistance mutant HBV-Pol [3] | amount of genomic DNA (G3PDH exon 8) [4] | replication of HBV DNA ([2]; Example 3, FIG. 6A, serially diluted) | amount of mitochondrial DNA (ND5) [5] | HBV replication (reporter-minus strand DNA by real time PCR) in HeLa cells under forced expression of MEK1 [6] [fold] |
| --- | --- | --- | --- | --- | --- | --- | --- | --- |
| C=C1[C@H](CO)[C@@H](O)C[C@@H]1n1cnc2c(=O)[nH]c(N)nc21 [Entecavir] | weak | decreased in an Entecavir-concentration depending manner | suppressed reverse transcription by a wild-type HBV-Pol in a concentration-dependent manner | not substantially suppressed | – | – | – | – |
| Hypothemycin | all in a concentration-dependent manner | – | all in a concentration-dependent manner | all in a concentration-dependent manner | not affected | inhibited replication of HBV DNA in a concentration-dependent manner | not affected | – |
| constitutively active human MEK1 (S218E/S222E) (from UniProt Q02750 1-393) (enzyme) | – | – | – | – | – | – | – | 10 |
